The values below come from ChEMBL document CHEMBL1201862, “PubChem BioAssay data set” (2004).

Experiment [1] addresses T1, SUMO-activating enzyme (Homo sapiens, UniProt Q9UBT2). The experiment in a line: inhibitors of in vitro SUMOylation cascade, primary screen, biochemical, HTRF, uHTS (AID 2006). In kind it is protein-complex assay. (In TR-FRET formats the signal depends on donor and acceptor labels being close together.)
The target of experiment [2] is T2, Caspase-3 (Homo sapiens, UniProt P42574).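 Also: Dose-response selectivity test against caspase-3 for candidate inhibitors of sentrin-specific proteases (SENPs).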
T2 sequence (P42574 whole entry): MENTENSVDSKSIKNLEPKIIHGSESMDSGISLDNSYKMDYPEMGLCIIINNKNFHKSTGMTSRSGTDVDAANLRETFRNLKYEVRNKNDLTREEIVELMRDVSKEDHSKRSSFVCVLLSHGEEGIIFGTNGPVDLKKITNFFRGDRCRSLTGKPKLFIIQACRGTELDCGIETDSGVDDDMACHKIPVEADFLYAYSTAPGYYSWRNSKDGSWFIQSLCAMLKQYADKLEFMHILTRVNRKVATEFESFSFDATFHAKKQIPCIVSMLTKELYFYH
The experiment is classed as functional.

Experiment [3] concerns the target Albumin (Bos taurus, UniProt P02769). The experiment is described as follows: Counterscreen for inhibitors of T-cell receptor (TCR)-CD3 interaction: Fluorescence-based biochemical high throughput dose response assay to identify inhibitors of T-cell receptor (TCR)-CD3 interaction using a TAMRA-labeled BSA probe. The experiment is classed as functional. (Counterscreens check selectivity or assay interference.)

Experiment [4] addresses T3, Long-chain-fatty-acid--AMP ligase FadD28 (Mycobacterium tuberculosis, UniProt P9WQ59).
T3 sequence (P9WQ59 whole entry): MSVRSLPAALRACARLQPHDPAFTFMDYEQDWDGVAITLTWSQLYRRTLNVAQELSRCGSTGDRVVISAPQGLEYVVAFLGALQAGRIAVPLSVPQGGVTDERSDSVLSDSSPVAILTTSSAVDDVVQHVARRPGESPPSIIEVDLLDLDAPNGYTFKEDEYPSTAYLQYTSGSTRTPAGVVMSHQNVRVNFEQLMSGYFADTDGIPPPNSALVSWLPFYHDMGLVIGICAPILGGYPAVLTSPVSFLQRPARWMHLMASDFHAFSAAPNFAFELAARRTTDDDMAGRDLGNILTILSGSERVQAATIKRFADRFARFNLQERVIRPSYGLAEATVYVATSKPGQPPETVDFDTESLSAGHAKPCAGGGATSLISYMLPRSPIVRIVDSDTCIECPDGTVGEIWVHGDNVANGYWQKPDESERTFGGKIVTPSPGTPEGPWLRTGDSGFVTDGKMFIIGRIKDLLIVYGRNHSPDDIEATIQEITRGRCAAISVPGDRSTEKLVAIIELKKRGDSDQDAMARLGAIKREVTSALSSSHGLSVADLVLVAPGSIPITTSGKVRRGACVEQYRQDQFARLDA
The experiment in a line: Fluorescence polarization aasay to screen for inhibitors that compete for the binding of FadD28 to a bisubstrate Measured in Biochemical System Using Plate Reader - 2147-01_Inhibitor_Dose_CherryPick_Activity. The experiment is classed as functional, Mycobacterium tuberculosis H37Rv. Background: Polarisation of emitted light reports the rotation of a fluorescent probe.

For experiment [5], the target named is T4, Sentrin-specific protease 7 (Homo sapiens, UniProt Q9BQF6).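 Also: Luminescence-based dose-response confirmation of ultra-high-throughput screening hits, measuring inhibition of SENP7.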
T4 sequence (Q9BQF6 whole entry): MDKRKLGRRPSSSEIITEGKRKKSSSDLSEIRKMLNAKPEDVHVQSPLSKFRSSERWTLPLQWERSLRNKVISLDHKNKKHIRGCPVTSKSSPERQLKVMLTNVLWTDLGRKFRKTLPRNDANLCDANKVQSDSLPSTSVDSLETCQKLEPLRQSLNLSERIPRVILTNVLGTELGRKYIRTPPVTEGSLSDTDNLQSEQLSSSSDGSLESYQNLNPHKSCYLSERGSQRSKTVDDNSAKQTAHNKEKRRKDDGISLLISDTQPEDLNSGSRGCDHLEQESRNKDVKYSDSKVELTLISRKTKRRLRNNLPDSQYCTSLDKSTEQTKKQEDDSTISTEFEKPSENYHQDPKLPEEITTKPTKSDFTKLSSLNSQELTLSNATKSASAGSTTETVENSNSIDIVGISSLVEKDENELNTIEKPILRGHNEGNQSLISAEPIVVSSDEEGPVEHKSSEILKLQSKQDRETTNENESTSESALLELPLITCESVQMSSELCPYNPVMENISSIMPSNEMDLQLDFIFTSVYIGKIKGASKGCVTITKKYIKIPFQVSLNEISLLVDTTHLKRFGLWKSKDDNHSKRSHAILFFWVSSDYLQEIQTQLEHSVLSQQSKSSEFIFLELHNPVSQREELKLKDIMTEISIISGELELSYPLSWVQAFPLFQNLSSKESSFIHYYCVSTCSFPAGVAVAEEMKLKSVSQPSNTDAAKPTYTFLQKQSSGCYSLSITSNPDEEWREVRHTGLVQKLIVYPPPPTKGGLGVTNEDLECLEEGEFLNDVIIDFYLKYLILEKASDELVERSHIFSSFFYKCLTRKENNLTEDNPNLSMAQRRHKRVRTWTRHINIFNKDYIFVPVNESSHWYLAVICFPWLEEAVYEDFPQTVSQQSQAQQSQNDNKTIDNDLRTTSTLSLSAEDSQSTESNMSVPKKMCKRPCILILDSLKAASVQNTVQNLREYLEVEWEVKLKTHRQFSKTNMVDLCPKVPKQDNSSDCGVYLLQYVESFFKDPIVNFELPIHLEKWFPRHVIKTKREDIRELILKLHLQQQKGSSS
The experiment is classed as functional.

A short description of experiment [6]: C. albicans growth with fluconazole, confirmation, fluorescence, retest (AID 2467). In kind it is functional, cell-based.
The test system of experiment [7] is INS1. The experiment is described as follows: beta cell apoptosis inhibitors, cytokine rescue, dose response, luminescence, retest (AID 449756).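 Also: cell death triggered by IL-1 beta plus TNF-alpha plus IFN-gamma mixture; protective hits raise ATP signal compared with cytokine alone wells.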 The experiment is classed as functional, cell-based. The following applies: Rattus norvegicus.
Experiment [8] in a line: NIH-3T3 fibroblast cytotoxicity, dose response, cytotoxicity control, cell-based, fluorescence, Alamar Blue, secondary assay (AID 2327).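 Also: NIH-3T3 mouse fibroblasts cultured with fluconazole at 8 µg/mL.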 The experiment is classed as functional.
In experiment [9] the target is T1, SUMO-activating enzyme. The experiment is described as follows: SUMOylation inhibitor hit validation, confirmation, SUMOylation inhibitor project, biochemical, AlphaScreen (AID 2018). The experiment is classed as functional.
Experiment [10] concerns the target T5, Sentrin-specific protease 6 (Homo sapiens, UniProt Q9GZR1).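 Also: Luminescence-based dose-response confirmatory assay of SENP6 inhibition, following up an ultra-high-throughput screen.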
T5 sequence (Q9GZR1 whole entry): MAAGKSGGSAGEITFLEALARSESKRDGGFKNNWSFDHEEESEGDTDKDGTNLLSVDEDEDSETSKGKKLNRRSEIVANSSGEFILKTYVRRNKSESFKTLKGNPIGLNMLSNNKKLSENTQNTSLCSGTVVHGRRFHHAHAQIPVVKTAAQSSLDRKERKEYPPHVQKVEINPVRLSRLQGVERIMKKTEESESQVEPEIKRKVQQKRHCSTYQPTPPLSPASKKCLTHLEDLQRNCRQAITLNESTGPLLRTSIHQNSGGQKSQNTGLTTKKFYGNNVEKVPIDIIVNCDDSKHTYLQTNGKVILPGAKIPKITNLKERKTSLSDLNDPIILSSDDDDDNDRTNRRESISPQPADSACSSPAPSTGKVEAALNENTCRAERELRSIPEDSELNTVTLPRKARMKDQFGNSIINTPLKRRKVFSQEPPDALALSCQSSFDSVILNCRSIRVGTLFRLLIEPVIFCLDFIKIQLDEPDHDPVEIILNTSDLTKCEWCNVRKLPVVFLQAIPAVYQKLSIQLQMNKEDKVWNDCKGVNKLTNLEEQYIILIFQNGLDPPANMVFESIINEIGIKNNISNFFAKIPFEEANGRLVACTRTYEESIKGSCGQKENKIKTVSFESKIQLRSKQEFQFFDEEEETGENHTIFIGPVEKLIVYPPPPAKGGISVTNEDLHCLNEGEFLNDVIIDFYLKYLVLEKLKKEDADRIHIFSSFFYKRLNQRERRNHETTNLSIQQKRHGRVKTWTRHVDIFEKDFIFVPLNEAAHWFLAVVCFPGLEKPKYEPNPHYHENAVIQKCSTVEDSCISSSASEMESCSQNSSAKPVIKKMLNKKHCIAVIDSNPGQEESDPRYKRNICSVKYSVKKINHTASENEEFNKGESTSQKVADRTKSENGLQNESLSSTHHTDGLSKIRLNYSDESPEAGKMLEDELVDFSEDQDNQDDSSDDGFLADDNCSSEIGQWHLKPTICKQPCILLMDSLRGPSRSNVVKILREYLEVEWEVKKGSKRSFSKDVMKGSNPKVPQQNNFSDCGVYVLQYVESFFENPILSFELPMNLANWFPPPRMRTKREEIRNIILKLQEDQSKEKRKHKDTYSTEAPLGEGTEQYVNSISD
The experiment is classed as functional.

The target in experiment [11] is T6, Sentrin-specific protease 8 (Homo sapiens, UniProt Q96LD8).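 Also: luminescence read-out of SENP8 inhibition, dose-response confirmation following an ultra-high-throughput screen.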
T6 sequence (Q96LD8 whole entry): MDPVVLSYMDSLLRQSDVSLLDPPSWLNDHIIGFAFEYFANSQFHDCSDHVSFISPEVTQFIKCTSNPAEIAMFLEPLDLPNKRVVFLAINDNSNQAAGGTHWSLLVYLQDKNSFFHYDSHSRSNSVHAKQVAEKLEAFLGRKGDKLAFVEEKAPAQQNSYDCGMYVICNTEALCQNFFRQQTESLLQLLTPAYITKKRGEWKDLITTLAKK
In kind it is functional.

The source made the active and inactive calls. Rule as the data show it, for most assays here: actives have a measured IC50 and inactives only a lower limit.

T1 sequence (Q9UBE0 whole entry): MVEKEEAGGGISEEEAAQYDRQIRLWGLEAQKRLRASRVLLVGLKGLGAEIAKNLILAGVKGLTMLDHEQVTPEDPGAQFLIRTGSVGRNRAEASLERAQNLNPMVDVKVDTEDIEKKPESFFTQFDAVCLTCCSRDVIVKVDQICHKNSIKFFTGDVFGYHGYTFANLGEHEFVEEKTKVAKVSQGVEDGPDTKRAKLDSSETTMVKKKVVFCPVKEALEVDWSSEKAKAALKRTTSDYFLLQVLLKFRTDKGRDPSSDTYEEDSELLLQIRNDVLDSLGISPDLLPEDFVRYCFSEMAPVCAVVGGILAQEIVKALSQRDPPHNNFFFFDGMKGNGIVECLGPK
T1 sequence (Q9UBT2 whole entry): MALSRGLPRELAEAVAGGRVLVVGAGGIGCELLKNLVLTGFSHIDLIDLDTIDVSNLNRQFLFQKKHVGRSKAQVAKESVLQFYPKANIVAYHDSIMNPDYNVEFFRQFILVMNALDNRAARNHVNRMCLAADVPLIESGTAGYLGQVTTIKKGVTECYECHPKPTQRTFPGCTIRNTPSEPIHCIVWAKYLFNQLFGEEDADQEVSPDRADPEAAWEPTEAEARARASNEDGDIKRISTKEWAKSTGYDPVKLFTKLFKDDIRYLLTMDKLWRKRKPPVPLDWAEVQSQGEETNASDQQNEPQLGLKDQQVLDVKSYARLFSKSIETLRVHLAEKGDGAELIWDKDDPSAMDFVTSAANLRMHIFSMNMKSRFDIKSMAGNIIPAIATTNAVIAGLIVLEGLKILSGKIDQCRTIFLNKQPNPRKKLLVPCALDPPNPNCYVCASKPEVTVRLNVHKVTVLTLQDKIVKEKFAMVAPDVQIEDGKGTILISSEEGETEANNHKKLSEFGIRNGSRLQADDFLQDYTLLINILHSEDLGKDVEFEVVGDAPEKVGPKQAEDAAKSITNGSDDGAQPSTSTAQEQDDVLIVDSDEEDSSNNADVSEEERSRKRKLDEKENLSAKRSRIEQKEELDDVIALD
Albumin, sequence (P02769 whole entry): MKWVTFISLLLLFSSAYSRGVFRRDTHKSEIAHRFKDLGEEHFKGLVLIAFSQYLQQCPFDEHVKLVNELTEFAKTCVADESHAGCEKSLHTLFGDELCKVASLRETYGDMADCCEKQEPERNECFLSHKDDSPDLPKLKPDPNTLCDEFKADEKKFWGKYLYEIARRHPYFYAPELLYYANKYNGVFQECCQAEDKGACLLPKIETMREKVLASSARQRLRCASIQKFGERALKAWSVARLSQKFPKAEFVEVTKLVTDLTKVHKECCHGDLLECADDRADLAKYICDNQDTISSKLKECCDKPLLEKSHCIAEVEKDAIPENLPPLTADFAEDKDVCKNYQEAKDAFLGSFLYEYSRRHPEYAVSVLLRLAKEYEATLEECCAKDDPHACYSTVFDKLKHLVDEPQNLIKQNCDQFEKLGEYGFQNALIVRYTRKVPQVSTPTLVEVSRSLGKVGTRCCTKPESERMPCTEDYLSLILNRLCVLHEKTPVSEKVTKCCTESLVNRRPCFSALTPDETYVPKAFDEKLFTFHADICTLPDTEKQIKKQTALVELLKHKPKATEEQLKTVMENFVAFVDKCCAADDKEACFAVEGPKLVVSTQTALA

A word on the IC50: it is the concentration needed to halve the response being measured. Usually AC50 stands for the concentration at which the activity in the assay is half-maximal. Broadly, the EC50 is the concentration needed to bring the measured effect to its halfway point. Take `O=[N+]([O-])c1ccc(O)c(/C=N/NC(=S)Nc2ccc(Cl)cc2Cl)c1`: the IC50 was 23.1 µM (active) in [1]; 28.3 µM (active) in [2]; > 94.1 µM (inactive) in experiment [3]; 3.08 µM (active) in experiment [5]; 1.41 µM (active) in experiment [9]; 3.15 µM (active) in experiment [10]. For the same molecule, the IC50 in experiment [11] was 7.38 µM (active). Also, the AC50 in experiment [4] was > 100 µM (inactive); in experiment [7] it was 1.72 µM (active). In addition, the results for the EC50 in [6] and in experiment [8] were 3.32 µM (active) and > 160 µM (inactive), respectively.
